The values below come from publication PMC4264242, “Androgen Receptor Antagonists and Anti-Prostate Cancer Activities of Some Newly Synthesized Substituted Fused Pyrazolo-, Triazolo- and Thiazolo-Pyrimidine Derivatives” (International Journal of Molecular Sciences, 2014).

The test system of this experiment is castrated immature rats. The experiment is described as follows: In vivo anti-androgenic activity in castrated immature rats treated with testosterone propionate. Also noted: species or system rat. An excerpt:
[…] male Wistar rats were obtained from the Animal House Colony, Research Institute of Ophthalmology, Giza, Egypt. Prepubertal male rats aged 3 weeks were castrated using the scrotal route under ether anesthesia.

For the compound `CC(O)(CS(=O)(=O)c1ccc(F)cc1)C(=O)Nc1ccc(C#N)c(C(F)(F)F)c1` (centres unmarked) [Bicalutamide, reference compound], the ED50 (Rattus norvegicus, castrated immature rats, TP 0.5 mg/kg s.c., compound p.o., read-out: ED50, in vivo anti-androgen activity) is 1.6 mg/kg. In addition, the “% (Inhibition), in vivo anti-androgen activity” value (inhibition of TP effect (TP 0.5 mg/kg s.c. once daily for 5 days), tested compound 10-30 mg/kg p.o.) was determined as 75%.

The ED50 is the dose that gives a 50% effect, or the effect in half of the subjects.
